SMILES strings stand for the structures. Entries after “also recorded” stand apart in the source; their conditions may differ.

For experiment [1], the system named is patient-derived CD4+ T cells. The experiment in a line: Example 3: expression of activation markers CD69 and CD25 in patient-derived CD4+ T cells. The class given is cell-based, human. The note with it: 48 hours; anti-CD3/CD28 beads = 100%. The protocol: Following treatment with Tideglusib, the CD4^+ T cells were spun down and stained with antibodies for the activation markers CD69 and CD25. Briefly, cells were harvested 48 hours after Tideglusib treatment, incubated with the antibodies for 15 minutes at room temperature, than washed and fixed with 1% PFA for 30 minutes; then washed again and analyzed via flow cytometer.

The next experiment has as its system NF-κB (p65). The experiment can be described thus: Example 5: NF-κB p65 nuclear translocation, western blot of nuclear extracts. The class given is cell-based, human. The note with it: 1 μM tideglusib or anti-CD3/CD28 coated beads; CD4+ T cells of three HIV-negative participants. Background: A western blot detects proteins with antibodies after separation by electrophoresis.

Experiment [2] relates to CD4+ T cells. The experiment in a line: Example 5: basal and compensatory glycolysis, Seahorse glycolytic rate assay. The note with it: 1 μM; 24 hours. The format is cell-based, human. Here is the method:
ECAR was determined using the Seahorse SF Glycolytic Rate Assay Kit (Agilent, 103344-100) and a Seahorse XF96 Extracellular Flux Analyzer (Seahorse Bioscience). Resting (2×10^5 per well) were seeded onto Cell-Tak-coated wells (354240; Corning) in buffered Seahorse XF RPMI medium (Agilent, 103576-100) supplemented with 10 mM glucose, 2 mM L-glutamine, 1 mM pyruvate and 5 mM HEPES (pH 7.4). Measurements were obtained under basal conditions and after adding 0.5 μM rotenone/antimycin A (103015-100; Seahorse Bioscience), and 2-deoxy-d-glucose (2-DG) at a final well concentration of 50 mM (Agilent Technologies). Basal glycolysis and Proton Efflux Rate (PER) were calculated according to. Lactate measurements were detected using the Cayman L-Lactate Assay Kit (Cayman Chemical, 70010) In brief, 24 hours post treatment, supernatant from 200.000 primary resting and activated CD4^+ T cells was harvested and measured according to the manufacturer's recommendation.

Experiment [3] deals with latent HIV in CD4+ T cells from HIV-1-infected individuals on suppressive ART. The experiment can be described thus: Example 1: reactivation of latent HIV, viral mRNA in culture supernatant by ddPCR. The note with it: 48 hours.
The test system of experiment [4] is AKT/mTOR pathway in CD4+ T cells. The experiment in a line: Example 5: phosphoproteomics (mass spectrometry) and GO enrichment analysis. The class given is cell-based, human. Conditions: 1 μM; 15 minutes. Here is the method:
Cells were lysed in a buffer containing 8M urea, 100 mM Tris pH 8.0, 150 mM NaCl, and protease inhibitors (Roche Complete tablet). Lysates were reduced with 4 mM TCEP for 30 minutes at room temperature and alkylated with 10 mM iodoacetamide for 30 minutes at room temperature in the dark. Samples were diluted 1:4 in 100 mM Tris pH 8.0 to reduce urea concentration to 2M and digested with trypsin (1:100 enzyme:substrate ratio) overnight at 37 degrees Celsius. Peptides were desalted with SepPak C 18 solid phase extraction (Waters) according the manufacturer's specifications and lyophilized to dryness. Phosphopeptides were purified using an immobilized metal affinity chromatography approach.
Samples were analyzed on a Thermo Scientific LTQ Orbitrap Elite MS system equipped with an Easy nLC-1000 HPLC and autosampler system that is capable of maintaining back pressures of up to 10,000 psi for high resolution chromatographic separations. The HPLC interfaces with the MS system via a nanoelectrospray source.
Samples were injected onto a C18 reverse phase capillary column (75 um inner diameter×25 cm length, packed with 1.9 um C18 particles). Peptides were then separated by an organic gradient from 5% to 30% ACN in 0.1% formic acid over 180 minutes at a flow rate of 300 nl/min. The MS continuously collected spectra in a data-dependent fashion over the entire gradient.
Raw mass spectrometry data were analyzed using the MaxQuant software package (version 1.3.0.5). Data were matched to the SwissProt human reference sequence database. MaxQuant was configured to generate and search against a reverse sequence database for false discovery rate calculations. […] For MS/MS matching, a mass tolerance of 0.5 Da was allowed and the top 6 peaks per 100 Da were analyzed. […]
The MaxQuant-analyzed data were subsequently analyzed using an in-house computational pipeline for statistical analysis of relative quantification with fixed and/or mixed effect models, implemented in the MSstats Bioconductor package (version 3.3.10). […]

In experiment [5] the test system is CD4+ T cells. The experiment can be described thus: Example 5: GLUT1 surface expression, flow cytometry. The format is cell-based, human. Conditions: 2 or 24 hours; 1 μM tideglusib; CD4+ T cells of three HIV-negative donors. Here is the method: Freshly isolated PBMCs or CD4^+ T cells were stained for viability, using the fixable viability dye Zombie violet (1:50, Biolegend) according to the manufacturer's recommendation. Surface staining was performed with the following antibodies at 1:100 dilutions: CD3-PE-Cy7, CD4-APC-Cy7, CD69-FITC, CD25-PE (all 1:100, Biolegend), and Glut-1-Ax647 (BD Bioscience, 566580) in staining buffer for 20 min on ice and cells were fixed in 1% PFA-containing PBS. All flow analysis was performed on the LSRII (BD Biosciences) using FlowJo software (v.10.4.2). Color compensations were performed using single-stained samples for each of the fluorochromes used. Data were analyzed using FlowJo software (TreeStar, San Carlos, Calif.).
Changes to the metabolism of resting CD4^+ T-cells by tideglusib were studied. […] […].
In general terms: Flow cytometry measures light scatter and fluorescence of single cells or particles in a stream.

Experimental for NF-κB (p65): Nuclear extracts were prepared from purified CD4^+ T cells using the NE-PER Nuclear and Cytoplasmic Extraction reagent supplemented with protease inhibitor cocktail, as specified by the manufacturers protocol (Thermoscientific, catalogue no. 78833). Protein concentration of extracts was determined by Biorad protein assay (Biorad, catalogue no. 5000001). Nuclear extracts were resolved by electrophoresis on a 10% SDS-polyacrylamide gel using 15 μg of protein per condition and then transferred to PVDF membrane. Membranes were immunoblotted with primary antibodies for p65 (Cell signal Tech., catalogue no. 8242) and TATA binding protein (Abcam, catalogue no. ab63766); primary antibodies were diluted at 1:1000. Detection of primary antibodies was achieved by incubation with HRP conjugated secondary antibody. Bands were visualized by chemiluminescent detection using Immobilon Forte Western HRP ECL substrate (Millipore, catalogue no. WBLUF0100) followed by exposure to hyperfilm ECL (GE/Amersham, catalogue no. 45001508).

`O=c1sn(-c2cccc3ccccc23)c(=O)n1Cc1ccccc1` [Tideglusib, 4-benzyl-2-(naphthalen-1-yl)-1,2,4-thiadiazolidine-3,5-dione]: the “activation markers CD69 and CD25 on the surface of CD4+ T cells” value in experiment [1] is reported as “not up-regulated”. The “time of peak p65 nuclear translocation” value in the experiment on NF-κB (p65) was 60 min. Also, in the experiment with CD4+ T cells [2], the “basal glycolysis, mean value” came out at 17.43 pmol/min and the “compensatory glycolysis, response to Rot/AA” value was “did not result in an increase”. For the same compound, the “induction of viral mRNA in culture supernatant, highest single donor” value in experiment [3] (1 μM, one donor) is on record as “up to 60 fold”. Also, the “average increase in viral mRNA released into the culture supernatant compared to untreated control” value in experiment [3] (1 μM, vs DMSO-treated cells) came to 30 fold. Also, the “reactivation of latent HIV from CD4+ T cells upon ex vivo treatment” value in experiment [3] is “high level of reactivation; also recorded: even greater than that demonstrated with SB-216763”. Moreover, in experiment [4], the “GO enrichment analysis of treated vs untreated phosphoproteomics results” value was “activation of TCR signaling (data not shown), together with overall spliceosome complex activity, transcription activation, mRNA processing and EGFR signaling”; the “phosphoproteomics: GSK-3β and TSC2” value is “confirmed inhibition of GSK-3β and TSC2”; the “phosphoproteomics: Rictor” value is listed as “revealed phosphorylation of Rictor on T1295”. The “GLUT1 surface expression over the untreated control” value in the experiment with CD4+ T cells [5] is on record as “did not increase GLUT1 surface expression”.

The values above are taken from patent US11590110B2, “Compositions and methods for reactivating latent immunodeficiency virus using a GSK-3 inhibitor” (priority 2017, dated 2023).
